Data published in patent publication US7652037B2, “Methods of lowering lipid levels in a mammal” (City Of Hope, priority 2003, dated 2010).
Marks after values point to notes of the source that are not given here.

Key:
STZ-Diabetic Rats [1] = assay: Plasma lipids and plasma lipid hydroperoxides in STZ-diabetic rats (Example 13); format: in vivo, rat; details: for reduction of plasma lipid hydroperoxides: diabetic animals; for reduction in plasma cholesterol / reduction in plasma triglycerides: diabetic rats compared with untreated diabetic animals; for plasma cholesterol / plasma triglycerides: treated diabetic rats, means/SEM; for plasma cholesterol: untreated diabetic 136±13; for plasma triglycerides: untreated diabetic 598±110
Method: Diabetes was induced in male Sprague-Dawley rats by a single i.p. injection of STZ (65 mg/kg in citrate buffer, pH 4.5) after an overnight fast. Non-diabetic animals were injected with citrate buffer only. One week after STZ injection, only animals with >20 mmol/L plasma glucose were classified as diabetic and included in the study. Diabetic rats were divided randomly into the following treatment groups: diabetic untreated (D); and two diabetic treatment groups, receiving either LR-9 (D+LR-9) or LR-74 (D+LR-74) at 50 mg/L in drinking water. Three non-diabetic groups were studied concurrently: one untreated non-diabetic group (ND), and two non-diabetic groups treated with either LR-9 (ND+LR-9) or LR-74 (ND+LR-74) at 50 mg/L in drinking water.
At 32 weeks of the study, the rats were killed by over-anesthetization with isoflourane and cardiac puncture. Blood samples were collected from each animal and transferred accordingly into heparinized vacutainer tubes and were later centrifuged for plasma isolation. Aliquots of these plasma samples were stored at −70° C. until the time of analysis. Kidneys were removed immediately, decapsulated and rinsed in PBS buffer. Sections of the left kidneys were stored in 10% neutral buffered formalin for subsequent microscopic examinations and AGE immunohistochemistry. Sections of abdominal skin and tail of each individual rat were removed, rinsed in PBS buffer and stored at −70° C. for subsequent AGE quantification and crosslinking analyses.

STZ-Diabetic Rats [2] = assay: Tail tendon collagen crosslinking, fluorescence (pepsin digestion) and acid solubility; format: in vivo, rat; details: diabetic rats compared with untreated diabetic animals
Method: Isolation and preparation of tail tendon collagen was performed according to Kochakian et al., Diabetes 45:1694-1700, 1996. The relative degree of crosslinking and AGE formation in collagen was assessed by pepsin digestion and acid solubility. Pepsin digestion was performed as described previously by Stefek et al., Biochim. Biophys. Acta 1502:398-404, 2000. Briefly, collagen samples of 10 mg from individual rats were digested with pepsin (50 μg/mL in 0.5 mol/l acetic acid) for 24 hours at 37° C. After digestion, the samples were centrifuged at 3000 rpm for 30 minutes at 4° C. and the clear supernatant containing the digested collagen was collected. One hundred microliter aliquots of the supernatant were mixed with 900 μL PBS buffer for measurement of the fluorescence of the sample at 365 nm excitation and 418 nm emission. The hydroxyproline content of the supernatant was calculated following acid hydrolysis using a microassay method according to known methods (Creemers et al., Biotechniques 22:656-658, 1997).
The acid solubility of tail tendon collagen was measured by a modification of the method outlined in Yang et al., Arch. Biochem. Biophys. 412:42-46, 2003. Briefly, samples of about 2 mg collagen were weighed and solubilized in 0.05 M acetic acid overnight at 4° C. The suspensions were centrifuged at 20,000 g 60 minutes at 4° C. and the supernatants and pellets were separated for analysis of hydroxyproline content following acid hydrolysis. Acid solubility was calculated as the percentage of hydroxyproline in the supernatant divided by the total hydroxyproline content in the pellet and the supernatant.

[3] = Carbonyl trapping activity; details: compared with AG, PM and LR-90
[4] = Kinetics of linoleic acid oxidation, TBARS; details: 5 mM linoleic acid, 1 mM compound, pH 7.4, 7 days at 37° C.
Method: Human LDL was isolated from plasma of healthy donors by single vertical spin centrifugation (see Chung et al., Methods Enzymol. 128:181-209, 1986) and used within 24-48 hours of preparation. LDL (50 μg/mL) was incubated at 37° C. in 50 mM chelex-treated phosphate buffer, pH 7.4, alone or in the presence of 5 μM CuCl2 or 5 μM CuCl2 plus various concentrations of the LR compounds. After 5 hours of incubation, aliquots from each reaction mixture were removed for measurement of thiobarbituric acid-reacting substances (TBARS) as described in Satoh, Clin. Chim. Acta 90:37-43, 1978. Briefly, 250 μL of 20% trichloroacetic acid was added to 500 μL of sample aliquot, followed by 750 μL of 1% […]. The samples then were vortexed and incubated in a boiling water bath for 10 minutes. Upon cooling, the samples were centrifuged for 5 minutes at 5000 rpm. Absorbance of the supernatant was taken at 532 nm, and expressed as MDA equivalents using 1,1,3,3-tetramethoxypropane as standards. For fatty acid oxidation studies, linoleic acid (5#mM) was incubated alone or in the presence of 1 mM LR compound in […] phosphate buffer, pH 7.4, for 7 days at 37° C. Aliquots from each reaction mixture were withdrawn periodically for measurement of TBARS as described above.
Aliquots were withdrawn periodically and assayed by the TBARS method as above. The MDA equivalent was estimated based on standards.

STZ-Diabetic Rats [5] = assay: Renal function parameters in STZ-diabetic rats (Example 3); format: in vivo, rat; details: for Plasma Creatine / Urinary Albumin / Urinary Albumin/Creatine Ratio: mean ± SD; for decrease of elevated plasma creatinine concentrations: diabetic rats
Method: Male Sprague-Dawley rats (about 175 to 200 g) were adapted for one week prior to treatment, then rendered diabetic by intra-peritoneal injection of STZ (65 mg/kg in citrate buffer, pH 4.5) after an overnight fast. Control (non-diabetic) animals were injected with the buffer only. Diabetes was confirmed by measuring the plasma glucose concentrations 7 days after Streptozotocin (STZ)-injection. Only animals with a plasma glucose concentration greater than 20 mmol were classified as diabetic and used in the study. These diabetic rats were divided randomly into an untreated diabetic control group and a diabetic treatment group. The treatment group received an LR compound at 50 mg/l in their drinking water throughout the duration of the study (32 weeks for LR-90; 30 weeks for LR-9 and LR-74). All animals were housed individually and were given free access to food and water.
Blood (from the tail vein) and urine samples were collected from rats for glycemic control analysis and albuminuria measurements. Glycemia was monitored every 8 weeks by measuring plasma glucose and glycated hemoglobin. Plasma or serum also was tested for total cholesterol and total triglycerides. Progression of renal dysfunction was assessed by measuring urinary albumin to creatinine ratio (UA/Cr) and serum or plasma creatinine. For measurement of urinary albumin and creatinine concentrations, rats were housed in metabolic cages for 24 hours and urine was collected in a collection beaker with several drops of toluene to inhibit microbial growth.
Urinary albumin, plasma creatinine concentration, and urinary albumin/creatine ratio (UA/Cr) were used as indicators of renal function.

[6] = STZ-diabetic (D) rats, 30 weeks
[7] = non-diabetic (ND) rats, 30 weeks
[8] = STZ-diabetic (D) rats, LR-90, 32 weeks
[9] = non-diabetic (ND) rats, LR-90, 32 weeks

Compound	reduction of plasma lipid hydroperoxides (STZ-Diabetic Rats [1]) [%]	reduction in plasma cholesterol (STZ-Diabetic Rats [1])	reduction in plasma triglycerides (STZ-Diabetic Rats [1]) [%]	plasma cholesterol (STZ-Diabetic Rats [1]) [mg/dL]	plasma triglycerides (STZ-Diabetic Rats [1]) [mg/dL]	fluorescence and crosslinking of tail tendon collagen (pepsin digestion) (STZ-Diabetic Rats [2])	carbonyl trapping activities [3]	linoleic acid (LA) oxidation, MDA equivalents [4]	Plasma Creatine (STZ-Diabetic Rats [5]; [6])	Urinary Albumin (STZ-Diabetic Rats [5]; [6])	Urinary Albumin/Creatine Ratio (STZ-Diabetic Rats [5]; [6])	decrease of elevated plasma creatinine concentrations (STZ-Diabetic Rats [5]) [%]	Plasma Creatine (STZ-Diabetic Rats [5]; [7]) [mg/dL]	Urinary Albumin (STZ-Diabetic Rats [5]; [7]) [mg/24 hr]	Urinary Albumin/Creatine Ratio (STZ-Diabetic Rats [5]; [7])	further results
CC(C)(Oc1ccc(NC(=O)c2ccc3ccccc3c2)cc1)C(=O)O [LR-9, 4-(2-napthylcarboxamido) phenoxyisobutyric acid]	35	≤ 30%	≤ 60	96 ± 5	239 ± 50	significant reduction	weaker	totally prevented LA oxidation	1.79 ± 0.95^c mg/dl	18.0 ± 9.1^c mg/24 hr	1.36 ± 0.93^c	~50	0.42 ± 0.02	4.8 ± 2.3	0.33 ± 0.13	
CC(Oc1cccc2cccnc12)C(=O)O (stereo not drawn) [LR-74, 2-(8-quinolinoxy) propionic acid]	45	approximately 30%	~70	93 ± 2	161 ± 29	significant reduction	weaker	did not totally prevent the oxidation	1.64 ± 1.07^c mg/dl	14.3 ± 9.07^c mg/24 hr	1.23 ± 0.60^c	~50	0.42 ± 0.05	4.6 ± 2.4	0.30 ± 0.16	
methylene bis(4,4′-(2-chlorophenylureidophenoxyisobutyric acid) [LR-90]						significant reduction		totally prevented LA oxidation				~50				Plasma Creatine (STZ-Diabetic Rats [5]; [8]): 1.50 ± 0.53^c mg/dl; Urinary Albumin (STZ-Diabetic Rats [5]; [8]): 23.6 ± 4.5^c mg/24 hr; Urinary Albumin/Creatine Ratio (STZ-Diabetic Rats [5]; [8]): 1.57 ± 0.49^c; Plasma Creatine (STZ-Diabetic Rats [5]; [9]): 0.58 ± 0.07 mg/dL; Urinary Albumin (STZ-Diabetic Rats [5]; [9]): 8.9 ± 1.5 mg/24 hr; Urinary Albumin/Creatine Ratio (STZ-Diabetic Rats [5]; [9]): 0.57 ± 0.16
